pKi: −log10 of the molar value.
How the values were obtained:
JAK-3 = molecular target: T1, JAK-3 (Homo sapiens, UniProt P52333); assay: JAK-3 inhibition assay; format: biochemical
T1 sequence (P52333 1-1124): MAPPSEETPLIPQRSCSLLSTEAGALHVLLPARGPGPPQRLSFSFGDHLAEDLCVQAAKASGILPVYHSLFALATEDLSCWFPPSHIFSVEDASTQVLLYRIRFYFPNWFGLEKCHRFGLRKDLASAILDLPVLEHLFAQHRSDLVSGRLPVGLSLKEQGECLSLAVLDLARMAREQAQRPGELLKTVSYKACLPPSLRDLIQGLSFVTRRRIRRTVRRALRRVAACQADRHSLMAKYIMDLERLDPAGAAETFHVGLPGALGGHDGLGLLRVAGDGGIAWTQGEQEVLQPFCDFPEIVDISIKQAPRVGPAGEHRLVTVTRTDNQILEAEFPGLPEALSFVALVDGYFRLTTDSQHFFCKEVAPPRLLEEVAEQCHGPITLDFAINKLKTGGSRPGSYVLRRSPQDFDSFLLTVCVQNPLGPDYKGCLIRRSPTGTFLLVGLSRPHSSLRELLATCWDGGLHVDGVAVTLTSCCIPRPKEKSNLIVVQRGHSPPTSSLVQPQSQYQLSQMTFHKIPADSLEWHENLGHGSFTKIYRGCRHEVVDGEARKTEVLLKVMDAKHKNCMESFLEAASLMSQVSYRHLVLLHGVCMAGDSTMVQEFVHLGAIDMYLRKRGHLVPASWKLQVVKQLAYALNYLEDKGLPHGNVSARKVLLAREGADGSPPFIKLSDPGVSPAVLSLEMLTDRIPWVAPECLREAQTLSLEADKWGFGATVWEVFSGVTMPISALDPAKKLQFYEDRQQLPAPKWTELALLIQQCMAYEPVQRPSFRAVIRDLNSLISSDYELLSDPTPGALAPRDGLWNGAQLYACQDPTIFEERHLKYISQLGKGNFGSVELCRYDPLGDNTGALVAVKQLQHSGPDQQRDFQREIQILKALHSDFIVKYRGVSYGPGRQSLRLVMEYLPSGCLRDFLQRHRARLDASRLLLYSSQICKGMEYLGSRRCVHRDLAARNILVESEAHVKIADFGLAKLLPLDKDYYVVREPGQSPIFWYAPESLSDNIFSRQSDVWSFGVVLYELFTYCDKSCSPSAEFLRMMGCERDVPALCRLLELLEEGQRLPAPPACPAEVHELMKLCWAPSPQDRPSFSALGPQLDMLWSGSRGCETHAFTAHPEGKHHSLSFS
Procedure: Compounds were screened for their ability to inhibit JAK using the assay shown below. Reactions were carried out in a kinase buffer containing 100 mM HEPES (pH 7.4), 1 mM DTT, 10 mM MgCl2, 25 mM NaCl, and 0.01% BSA.
Substrate concentrations in the assay were 5 μM ATP (200 μCi/μmole ATP) and 1 μM poly(Glu)4Tyr. Reactions were carried out at 25° C. and 1 nM JAK-3.
To each well of a 96 well polycarbonate plate was added 1.5 μL of a candidate JAK-3 inhibitor along with 50 μL of kinase buffer containing 2 μM poly(Glu)4Tyr and 10 μM ATP. This was then mixed and 50 μL of kinase buffer containing 2 nM JAK-3 enzyme was added to start the reaction. After 20 minutes at room temperature (25° C.), the reaction was stopped with 50 μL of 20% trichloroacetic acid (TCA) that also contained 0.4 mM ATP. The entire contents of each well were then transferred to a 96 well glass fiber filter plate using a TomTek Cell Harvester. After washing, 60 μL of scintillation fluid was added and ^33P incorporation detected on a Perkin Elmer TopCount. After removing the mean background values for all of the data points, the data were fit using Prism software to obtain a Ki value (app).

JAK-2 = JAK-2 (Homo sapiens, UniProt O60674); assay: JAK-2 inhibition assay; format: biochemical
Sequence of JAK-2 (O60674 whole entry): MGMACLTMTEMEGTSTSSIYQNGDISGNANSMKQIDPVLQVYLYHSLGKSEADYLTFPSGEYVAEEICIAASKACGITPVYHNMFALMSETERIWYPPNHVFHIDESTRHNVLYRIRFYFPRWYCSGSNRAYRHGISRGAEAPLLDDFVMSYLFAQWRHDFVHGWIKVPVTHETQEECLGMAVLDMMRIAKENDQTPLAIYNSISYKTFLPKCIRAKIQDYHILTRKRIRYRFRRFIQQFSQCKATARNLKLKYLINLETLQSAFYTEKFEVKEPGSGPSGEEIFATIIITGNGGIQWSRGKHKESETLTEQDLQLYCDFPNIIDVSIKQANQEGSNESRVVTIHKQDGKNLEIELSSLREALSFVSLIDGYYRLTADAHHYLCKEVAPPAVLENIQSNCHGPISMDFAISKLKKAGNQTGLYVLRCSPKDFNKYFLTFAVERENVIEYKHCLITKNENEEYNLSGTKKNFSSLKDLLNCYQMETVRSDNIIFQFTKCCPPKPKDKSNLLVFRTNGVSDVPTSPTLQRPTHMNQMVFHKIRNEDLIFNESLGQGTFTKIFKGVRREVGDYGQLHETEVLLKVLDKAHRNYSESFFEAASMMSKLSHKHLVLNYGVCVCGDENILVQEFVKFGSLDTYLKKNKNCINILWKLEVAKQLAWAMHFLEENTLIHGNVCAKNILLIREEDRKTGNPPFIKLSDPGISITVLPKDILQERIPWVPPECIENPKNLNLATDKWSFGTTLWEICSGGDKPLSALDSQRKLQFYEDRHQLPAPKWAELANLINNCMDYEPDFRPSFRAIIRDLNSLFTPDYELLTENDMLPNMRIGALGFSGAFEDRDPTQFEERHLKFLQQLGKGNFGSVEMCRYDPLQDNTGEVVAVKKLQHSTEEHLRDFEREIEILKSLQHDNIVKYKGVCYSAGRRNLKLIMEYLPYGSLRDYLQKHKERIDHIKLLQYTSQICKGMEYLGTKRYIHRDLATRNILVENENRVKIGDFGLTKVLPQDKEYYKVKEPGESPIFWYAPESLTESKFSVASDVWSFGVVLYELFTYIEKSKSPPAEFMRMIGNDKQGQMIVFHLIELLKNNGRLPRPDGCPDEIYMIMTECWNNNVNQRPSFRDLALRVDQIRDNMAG

pKi (JAK-3) | pKi (JAK-2) | SMILES
5.60 to 6.60 | > 6.60 | Fc1cccc(F)c1C1Nc2ccccc2-c2ncnc3[nH]cc1c23 (stereo not shown) [Compound 49]
< 5.60 | 5.60 to 6.60 | Fc1cccc(C2Nc3ccccc3-c3ncnc4[nH]cc2c34)c1 (stereo not shown) [Compound 50]
5.60 to 6.60 | 5.60 to 6.60 | CC1=Nc2ccccc2-c2ccnc3[nH]cc1c23 [Compound 51]
5.60 to 6.60 | 5.60 to 6.60 | Fc1cccc(F)c1C1Nc2ccccc2-c2c(Cl)cnc3[nH]cc1c23 (stereo not shown) [Compound 52]
≥ 6.60 | > 6.60 | Oc1ccc(C2Nc3ccccc3-c3c(Cl)cnc4[nH]cc2c34)c(Cl)c1 (stereo not shown) [Compound 53]
5.60 to 6.60 | > 6.60 | Fc1ccc(F)c(C2Nc3ccccc3-c3c(Cl)cnc4[nH]cc2c34)c1F (stereo not shown) [Compound 54]
≥ 6.60 | > 6.60 | Oc1ccc(C2Nc3ccccc3-c3ncnc4[nH]cc2c34)c(Cl)c1 (stereo not shown) [Compound 55]
≥ 6.60 | > 6.60 | Fc1ccc(F)c(C2Nc3ccccc3-c3ncnc4[nH]cc2c34)c1F (stereo not shown) [Compound 56]
≥ 6.60 | > 6.60 | Oc1ccc(C2Nc3ncccc3-c3ccnc4[nH]cc2c34)c(Cl)c1 (stereo not shown) [Compound 57]
5.60 to 6.60 | 5.60 to 6.60 | OCCCCC1=Nc2ccccc2-c2ccnc3[nH]cc1c23 [Compound 58]
< 5.60 | 5.60 to 6.60 | OCCCC1Nc2ccccc2-c2ccnc3[nH]cc1c23 (stereo not shown) [Compound 60]
≥ 6.60 | > 6.60 | Oc1ccc([C@H]2Nc3ccccc3-c3ccnc4[nH]cc2c34)c(Cl)c1 [Compound 62]
≥ 6.60 | > 6.60 | Oc1ccc(C2=Nc3ccccc3-c3ccnc4[nH]cc2c34)c(Cl)c1 [Compound 63]
≥ 6.60 | > 6.60 | COc1cc(C2Nc3ccccc3-c3ccnc4[nH]cc2c34)cc(O)c1O (stereo not shown) [Compound 64]
≥ 6.60 | > 6.60 | Oc1ccc(C2Nc3ccccc3-c3ccnc4[nH]cc2c34)cc1O (stereo not shown) [Compound 66]
≥ 6.60 | > 6.60 | Oc1c(Cl)cc(C2Nc3ccccc3-c3ccnc4[nH]cc2c34)cc1Cl (stereo not shown) [Compound 67]
≥ 6.60 | > 6.60 | COc1cc(C2Nc3ccccc3-c3ccnc4[nH]cc2c34)cc(F)c1O (stereo not shown) [Compound 68]
≥ 6.60 | > 6.60 | Oc1cccc(C2Nc3ccccc3-c3ccnc4[nH]cc2c34)c1O (stereo not shown) [Compound 69]
5.60 to 6.60 | > 6.60 | COc1ccc(C2Nc3ccccc3-c3ccnc4[nH]cc2c34)c(Cl)c1O (stereo not shown) [Compound 70]

pKi (JAK-3) | pKi (JAK-2) | SMILES
≥ 6.60 | > 6.60 | O=[N+]([O-])c1cc(O)ccc1C1Nc2ccccc2-c2ccnc3[nH]cc1c23 (stereo not shown) [Compound 71]
5.60 to 6.60 | < 5.60 | Oc1ccc(O)c(C2Nc3ccccc3-c3ccnc4[nH]cc2c34)c1 (stereo not shown) [Compound 72]
≥ 6.60 | > 6.60 | COc1cc(C2Nc3ccccc3-c3ccnc4[nH]cc2c34)ccc1O (stereo not shown) [Compound 73]
≥ 6.60 | > 6.60 | Oc1ccc(C2Nc3ccccc3-c3ccnc4[nH]cc2c34)cc1Cl (stereo not shown) [Compound 74]
≥ 6.60 | > 6.60 | Oc1ccc(C2Nc3ccccc3-c3ccnc4[nH]cc2c34)cc1I (stereo not shown) [Compound 75]
≥ 6.60 | > 6.60 | COc1cc(C2Nc3ccccc3-c3ccnc4[nH]cc2c34)c(Br)cc1O (stereo not shown) [Compound 76]
5.60 to 6.60 | 5.60 to 6.60 | Oc1c(Br)cc(C2Nc3ccccc3-c3ccnc4[nH]cc2c34)cc1Br (stereo not shown) [Compound 78]
5.60 to 6.60 | 5.60 to 6.60 | Cc1cc(C2Nc3ccccc3-c3ccnc4[nH]cc2c34)cc(C)c1O (stereo not shown) [Compound 79]
< 5.60 | < 5.60 | Oc1ncc(C2Nc3ccccc3-c3ccnc4[nH]cc2c34)c(O)n1 (stereo not shown) [Compound 80]
≥ 6.60 | > 6.60 | Oc1ccc(C2Nc3ccccc3-c3ncnc4[nH]cc2c34)cc1Cl (stereo not shown) [Compound 81]
≥ 6.60 | > 6.60 | Oc1ccc(C2Nc3ccccc3-c3ncnc4[nH]cc2c34)cc1Br (stereo not shown) [Compound 82]
≥ 6.60 | > 6.60 | Cc1cc(C2Nc3ccccc3-c3ncnc4[nH]cc2c34)ccc1O (stereo not shown) [Compound 83]
≥ 6.60 | > 6.60 | COc1cc(C2Nc3ccccc3-c3ncnc4[nH]cc2c34)ccc1O (stereo not shown) [Compound 84]
5.60 to 6.60 | 5.60 to 6.60 | COc1cc(C2Nc3ccccc3-c3ncnc4[nH]cc2c34)cc(OC)c1O (stereo not shown) [Compound 85]
< 5.60 | < 5.60 | O=[N+]([O-])c1ccc(C2Nc3ccccc3-c3ccnc4[nH]cc2c34)cc1 (stereo not shown) [Compound 86]
< 5.60 | < 5.60 | COC(=O)c1ccc(C2Nc3ccccc3-c3ccnc4[nH]cc2c34)cc1 (stereo not shown) [Compound 87]
< 5.60 | 5.60 to 6.60 | O=C(OCc1ccccc1)N1CCC(C2Nc3ccccc3-c3ccnc4[nH]cc2c34)CC1 (stereo not shown) [Compound 89]
5.60 to 6.60 | 5.60 to 6.60 | c1ccc2c(c1)NC(C1CCNCC1)c1c[nH]c3nccc-2c13 (stereo not shown) [Compound 90]
≥ 6.60 | > 6.60 | Nc1ccc(C2Nc3ccccc3-c3ccnc4[nH]cc2c34)cc1 (stereo not shown) [Compound 93]

pKi (JAK-3) | pKi (JAK-2) | SMILES
≥ 6.60 | > 6.60 | Nc1ccc(C2=Nc3ccccc3-c3ccnc4[nH]cc2c34)cc1 [Compound 94]
≥ 6.60 | > 6.60 | Cn1cc2c3c(ccnc31)-c1cccnc1NC2c1ccc(O)c(Cl)c1 (stereo not shown) [Compound 95]
5.60 to 6.60 | > 6.60 | Cn1cc2c3c(ccnc31)-c1cccnc1NC2c1ccc(O)cc1 (stereo not shown) [Compound 96]
≥ 6.60 | > 6.60 | Oc1ccc(C2Nc3ncccc3-c3ccnc4[nH]cc2c34)cc1 (stereo not shown) [Compound 97]
5.60 to 6.60 | < 5.60 | COC(=O)Nc1ccc(C2Nc3ccccc3-c3ccnc4[nH]cc2c34)cc1 (stereo not shown) [Compound 99]
5.60 to 6.60 | < 5.60 | COC(=O)Nc1ccc(C2c3c[nH]c4nccc(c34)-c3ccccc3N2C(=O)OC)cc1 (stereo not shown) [Compound 100]
< 5.60 | < 5.60 | COC(=O)Nc1ccc(C2c3cn(C(=O)OC)c4nccc(c34)-c3ccccc3N2C(=O)OC)cc1 (stereo not shown) [Compound 101]
< 5.60 | < 5.60 | COC(=O)C1(c2ccc(N)cc2)Nc2ccccc2-c2ccnc3[nH]cc1c23 (stereo not shown) [Compound 102]
5.60 to 6.60 | 5.60 to 6.60 | Oc1ccc(C2Nc3ccccc3-c3ccnc4[nH]cc2c34)cc1C(F)(F)F (stereo not shown) [Compound 104]
≥ 6.60 | > 6.60 | Oc1c(F)cc(C2Nc3ccccc3-c3ccnc4[nH]cc2c34)cc1F (stereo not shown) [Compound 106]
< 5.60 | < 5.60 | CC(C)(C)c1cc(C2Nc3ccccc3-c3ccnc4[nH]cc2c34)cc(C(C)(C)C)c1O (stereo not shown) [Compound 108]
5.60 to 6.60 | 5.60 to 6.60 | C1=Nc2ccccc2-c2ccnc3[nH]cc1c23 [Compound 109]
< 5.60 | < 5.60 | O=C(O)c1cc(C2Nc3ccccc3-c3ccnc4[nH]cc2c34)ccc1O (stereo not shown) [Compound 110]
< 5.60 | < 5.60 | COC(=O)c1cc(C2Nc3ccccc3-c3ccnc4[nH]cc2c34)ccc1O (stereo not shown) [Compound 111]
≥ 6.60 | > 6.60 | COc1cc(C2Nc3ccccc3-c3ccnc4[nH]cc2c34)cc(Cl)c1O (stereo not shown) [Compound 112]
≥ 6.60 | > 6.60 | Oc1ccc(C2=Nc3ccccc3-c3ccnc4[nH]cc2c34)cc1OC(F)(F)F [Compound 113]
5.60 to 6.60 | 5.60 to 6.60 | Oc1ccc(C2Nc3ccccc3-c3ccnc4[nH]cc2c34)cc1OC(F)(F)F (stereo not shown) [Compound 114]
≥ 6.60 | > 6.60 | Oc1c(F)cc(C2Nc3ccccc3-c3ncnc4[nH]cc2c34)cc1F (stereo not shown) [Compound 115]

Reference: patent publication US8163732B2, “Tricyclic heteroaryl compounds useful as inhibitors of Janus kinase” (Vertex Pharmaceuticals Incorporated, priority 2005, dated 2012)
